In PMC5529531, “Engineered isopeptide bond stabilized fibrin inspired nanoscale peptide based sealants for efficient blood clotting” (Scientific Reports, 2017):
Several values for one entry are separate records, joined by “and”; a condition that tells them apart may be missing. Identical values can stand only once.

Test system: platelet-free plasma
Assay: Thrombin clotting time experiment with platelet-free plasma
Conditions: 0.35 mL chicken platelet-free plasma at 37 °C + 0.15 mL sealant solution (peptide 1.5 mM in 25 mM PBS pH 7.4, 5 mM CaCl2, 10 µL TG 7 U/mL) or thrombin-calcium reagent; mean ± SD of two independent experiments
Procedure: Plasma was collected by centrifuging whole non-coagulated chicken blood (4500 rpm, 10 min, 4 °C). Thrombin clotting time (Figure S19) experiment was performed by incubating 0.35 mL platelet-free plasma, in a 1.5 mL microcentrifuge tube at 37 °C for 10 min, followed by the addition of the thrombin-calcium reagent, 0.15 mL, maintained at room temperature. The period of clot formation was noted. The same batch of platelet-free plasma was used to determine sealant clotting time. Platelet-free plasma 0.35 mL, was taken in a 1.5 mL microcentrifuge tube incubated at 37 °C followed by addition of 0.15 mL sealant solution. Sealant was prepared by dissolving each peptide in 25 mM PBS buffer, pH 7.4 with 5 mM CaCl2 where final conc. of the peptide was 1.5 mM followed by the addition of 10 µL TG (7 U/1 mL) soln. The period of clot formation was noted. The results are represented as mean ± SD of two independent experiments.
Figure S19. Determination of clotting time of sealants with plasma by thrombin clotting time method. The clotting time in presence of thrombin, sealants 1, 2 and 3 are 32±2, 35±1, 25±1 and 28±2 secs, respectively.

In the case of “thrombin: thrombin (bovine plasma), used as thrombin-calcium reagent”, the “clotting time (thrombin clotting time experiment)” value is reported as 32±2 secs and ~ 32 ± 2 secs.
